Test system: Mia-Paca2 cells (human pancreatic cancer cells)
Assay: Measurement of cell proliferation in vitro (WST1 colorimetric test, polyhema-coated plates)
Format: cell-based
Parameters: Observed values (living cells): scale not given here
Settings: for Compound B1 alone (observed value of living cells) / Compound B5 alone (observed value of living cells): 0 μM = 100; for Compound B4 alone (observed value of living cells) / Compound B2 alone (observed value of living cells) / Compound B3 alone (observed value of living cells): 0 nM = 100
Protocol: The cell line Mia-Paca2 (human pancreatic cancer cells) was acquired from the American Tissue Culture Collection (Rockville, Md., USA).
The Mia-Paca2 cells (1500 cells/wells) are cultured in 96-well plates pre-coated with polyhema (Sigma) which allows only the growth of cells presenting a tumorigenic phenotype.
On day 0, these cells are seeded in 90 μl of Dulbecco's modified Eagle medium (Gibco-Brl, Cergy-Pontoise, France) completed with 10% of foetal calf serum inactivated by heating (Gibco-Brl, Cergy-Pontoise, France), 50000 units/l of penicillin and 50 mg/l streptomycin (Gibco-Brl, Cergy-Pontoise, France), and 2 mM of glutamin (Gibco-Brl, Cergy-Pontoise, France).
The cells were treated with increasing concentrations of two products alone or combined in a matrix, i.e.: on day 1, with the first product for 96 hours and on day 2 with the second product for 72 hours. According to method α, the transduction inhibitor of heterotrimeric G protein signals with which the anti-cancer agent is combined is administered before the latter, then according to method β, it is done so after.
At the end of this period, quantification of cell proliferation is evaluated by a colorimetric test based on the cleavage of the tetrazolium salt WST1 by mitochondrial dehydrogenases in the living cells leading to the formation of formazan (Boehringer Mannheim, Meylan, France). These tests are carried out in duplicate with 4 measurements for each single product and for each combination tested. This allows the number of living cells at the end of each treatment to be determined, i.e. the observed value. The calculated value of the living cells for each treatment corresponds to the multiplication of the observed values of the effects of separate products. These observed and calculated values are compared for each combination. When the observed value of living cells is lower than the calculated value of the living cells, a synergy is considered to exist. When the observed value is equal to the calculated value, a additive effect is considered to exist. When the observed value is greater than the calculated value, an antagonism is considered to exist.

1-(2-(1-((4-cyano)phenylmethyl)imidazol-4-yl)-1-oxoethyl-2,5-dihydro-4-(2-methoxyphenyl)imidazo[1,2c][1,4]benzodiazepine [compound B1]
Compound B1 alone (observed value of living cells) (B1 0.04 μM alone, Table I): 94 ± 2.3
Compound B1 alone (observed value of living cells) (B1 0.2 μM alone, Table I): 80 ± 4.2
Compound B1 alone (observed value of living cells) (B1 1 μM alone, Table I): 68 ± 2.3

4-(2-bromophenyl)-1-(2-(1-((4-cyano-3-methoxy)phenylmethyl)-imidazo-5-yl)-1-oxoethyl)-1,2-dihydro-8-fluoro-imidazo[1,2a][1,4]-benzodiazepine [compound B5]
Compound B5 alone (observed value of living cells) (B5 0.2 μM alone, Table V): 86 ± 0.9
Compound B5 alone (observed value of living cells) (B5 1 μM alone, Table V): 63 ± 2.6

Cn1cncc1C(N)(c1ccc(Cl)cc1)c1ccc2c(c1)c(-c1cccc(Cl)c1)cc(=O)n2C (racemic) [compound B4, (±)-4-(3-chlorophenyl)-6-[(4-chlorophenyl)-amino-(1-methyl-1H-imidazol-5-yl)methyl]-1-methyl-2(1H)quinolinone, reference compound]
Compound B4 alone (observed value of living cells) (B4 40 nM alone, Table IV): 104 ± 2.0
Compound B4 alone (observed value of living cells) (B4 0.2 μM alone, Table IV): 90 ± 9.0
Compound B4 alone (observed value of living cells) (B4 1 μM alone, Table IV): 72 ± 3

Cc1ccccc1-c1cn2c(n1)C(CC1CCCCC1)N(C(=O)C(N)CS)CC2 (stereo not shown) [compound A1, 7-(2-amino-1-oxo-3-thiopropyl)-8-(cyclohexylmethyl)-2-(2-methylphenyl)-5,6,7,8-tetrahydroimidazo[1,2a]pyrazine]
Observed values (living cells) (A1 20 μM alone (B1 0 μM), method α, n = 4, Table I): 51 ± 8.9
Observed values (living cells) (A1 20 μM alone (B2 0 nM), method α, n = 3, Table II): 49 ± 7.7
Observed values (living cells) (A1 20 μM alone (B3 0 nM), method α, n = 3, Table III): 65 ± 7.3

NC(CS)C(=O)N1CCn2cc(-c3ccccc3)nc2C1CC1CCCCC1 (stereo not shown) [compound A2, 7-(2-amino-1-oxo-3-thiopropyl)-8-(cyclohexylmethyl)-2-phenyl-5,6,7,8-tetrahydroimidazo[1,2a]pyrazine]
Observed values (living cells) (A2 20 μM alone (B4 0 nM), method β, n = 2, Table IV): 42 ± 11.0
Observed values (living cells) (A2 20 μM alone (B5 0 μM), method β, n = 3, Table V): 44 ± 6.4

CC(=O)O[C@H]1C(=O)[C@@]2(C)[C@H]([C@H](OC(=O)c3ccccc3)[C@]3(O)C[C@H](OC(=O)[C@H](O)[C@@H](NC(=O)c4ccccc4)c4ccccc4)C(C)=C1C3(C)C)[C@]1(OC(C)=O)CO[C@@H]1C[C@@H]2O [compound B2, taxol, reference compound]
Compound B2 alone (observed value of living cells) (B2 0.8 nM alone, Table II): 100 ± 5.8
Compound B2 alone (observed value of living cells) (B2 4 nM alone, Table II): 100 ± 0.3
Compound B2 alone (observed value of living cells) (B2 20 nM alone, Table II): 60 ± 10.6

Nc1ccn([C@@H]2O[C@H](CO)[C@@H](O)C2(F)F)c(=O)n1 [compound B3, gemcitabine, reference compound]
Compound B3 alone (observed value of living cells) (B3 4 nM alone, Table III): 95 ± 9.8
Compound B3 alone (observed value of living cells) (B3 20 nM alone, Table III): 72 ± 11.5
Compound B3 alone (observed value of living cells) (B3 100 nM alone, Table III): 62 ± 1.9

Source: patent US7034024B1, “Product inhibiting transduction of G heterotrimeric protein signals combined with another anti-cancer agent for therapeutic use in cancer treatment” (Societe de Conseils de Recherches et d'Applications …, priority 1999, dated 2006)
